From BindingDB's records for doi:10.1021/cb600303y (Rutgers University, 2006)

Key:
[1] = biological target: T1, Gag-Pol polyprotein [600-1028,C879S]/[600-1151,C879S] (Human immunodeficiency virus 1, UniProt P03366, C879S); experiment: Assay of RT RNH Activity; conditions: pH 8; 37 °C
T1 construct: 600-1028; 600-1151
Description: (§1) To assess the effect of inhibitors, RT RNH activity was measured using a FRET-based microplate fluorescence assay. Briefly, the RNA-DNA hybrid duplex was added to individual wells of a 96-well microplate containing test compound. Reactions were initiated by the addition of HIV-1 RT and allowed to proceed at 37 deg C for 30 min. Reactions were quenched by the addition of EDTA (0.5 M).

[2] = biological target: T1, Gag-Pol polyprotein [600-1028,C879S]/[600-1151,C879S]; experiment: Assay of RT RNA-Dependent DNA Polymerase (RDDP) Activity; conditions: pH 7.8; 37 °C
Description: HIV-1 RT RDDP activity was generally determined by a fixed time assay. Briefly, reaction mixtures contained p51/p66 RT, template-primer, and [3H]-TTP substrate. Aliquots of DMSO solutions containing the inhibitor were added such that the final DMSO concentration was < 2%. Reaction assays were incubated at 37 deg C for 10-20 min and then quenched with sodium pyrophosphate in 10% trichloroacetic acid (TCA). The samples were then filtered on Whatman 934-AH glass fiber filters and washed with 10% TCA and ethanol, and the radioactivity determined by liquid scintillation spectrometry.

[3] = biological target: T2, Gag-Pol polyprotein [600-1028,Y787L]/[600-1151,Y787L] (Human immunodeficiency virus 1, UniProt P03366, Y787L); experiment: Assay of RT RNH Activity
T2 construct: 600-1028; 600-1151
Description: as §1

[4] = biological target: T3, Gag-Pol polyprotein [600-1028,D666N,K669R,T814F,K818Q,C879S]/[600-1151,D666N,K669R,T814F,K818Q,C879S] (Human immunodeficiency virus 1, UniProt P03366, C879S/D666N/K669R/K818Q/T814F); experiment: Assay of RT RNH Activity
T3 construct: 600-1028; 600-1151
Description: as §1

[5] = biological target: T4, Gag-Pol polyprotein [600-1028,Y780C]/[600-1151,Y780C] (Human immunodeficiency virus 1, UniProt P03366, Y780C); experiment: Assay of RT RNH Activity
T4 construct: 600-1028; 600-1151
Description: as §1

[6] = biological target: T5, Gag-Pol polyprotein [600-1028,V705A,Y780C,C879S]/[600-1151,V705A,Y780C,C879S] (Human immunodeficiency virus 1, UniProt P03366, C879S/V705A/Y780C); experiment: Assay of RT RNH Activity
T5 construct: 600-1028; 600-1151
Description: as §1

[7] = biological target: T6, Gag-Pol polyprotein [600-1028,L699I,K702N,C879S]/[600-1151,L699I,K702N,C879S] (Human immunodeficiency virus 1, UniProt P03366, C879S/K702N/L699I); experiment: Assay of RT RNH Activity
T6 construct: 600-1028; 600-1151
Description: as §1

Compound	IC50 [1] [nM]	IC50 [2] [nM]	IC50 [3] [nM]	IC50 [4] [nM]	IC50 [5] [nM]	IC50 [6] [nM]	IC50 [7] [nM]
COc1ccc2ccccc2c1/C=N/NC(=O)c1ccccc1 [dihydroxy benzoyl naphthyl hydrazone (DHBNH) analogue, 1]	15000	> 50000	–	–	–	–	–
COc1ccc2ccccc2c1/C=N/NC(=O)c1ccc(C)cc1 [dihydroxy benzoyl naphthyl hydrazone (DHBNH) analogue, 2]	15000	> 50000	–	–	–	–	–
COc1ccc(C(=O)N/N=C/c2c(OC)ccc3ccccc23)cc1 [dihydroxy benzoyl naphthyl hydrazone (DHBNH) analogue, 3]	12000	> 50000	–	–	–	–	–
COc1ccc2ccccc2c1/C=N/NC(=O)c1ccc(N(C)C)cc1 [dihydroxy benzoyl naphthyl hydrazone (DHBNH) analogue, 4]	2000	> 50000	–	–	–	–	–
COc1ccc2ccccc2c1/C=N/NC(=O)c1ccc(C(C)(C)C)cc1 [dihydroxy benzoyl naphthyl hydrazone (DHBNH) analogue, 5]	3000	2000	–	–	–	–	–
COc1ccc2ccccc2c1/C=N/NC(=O)c1ccc(-c2ccccc2)cc1 [dihydroxy benzoyl naphthyl hydrazone (DHBNH) analogue, 6]	5000	500	–	–	–	–	–
COc1ccc2ccccc2c1/C=N/NC(=O)c1ccc(Oc2ccccc2)cc1 [dihydroxy benzoyl naphthyl hydrazone (DHBNH) analogue, 7]	7000	400	–	–	–	–	–
COc1ccc2ccccc2c1/C=N/NC(=O)C1CCC(c2ccc(Cl)cc2)CC1 (stereo not drawn) [dihydroxy benzoyl naphthyl hydrazone (DHBNH) analogue, 8]	7500	1000	–	–	–	–	–
COc1ccc2ccccc2c1/C=N/NC(=O)c1ccc(O)c(O)c1 [dihydroxy benzoyl naphthyl hydrazone (DHBNH)]	500	> 25000	1200	500	650	850	700
